These results are taken from PubChem BioAssay (NCI).

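Assay format: 96-well plates, 48-hour exposure. Definition used: TGI = concentration required for complete inhibition of growth.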

Some test systems named below: CCRF-CEM leukemia; SK-MEL-2 melanoma; HOP-92 NSCLC; MALME-3M melanoma; MDA-MB-435; 786-0 renal; OVCAR-4 ovarian; SW-620 colon; MOLT-4 leukemia; A549 NSCLC; LOX IMVI melanoma.
What all share (assay): NCI-60 cell line screen, 48 h

As for `COc1ccc(C(O)/C(=N/N)c2nc3ccc(Cl)cc3[nH]c2=O)cc1` (configuration not stated), the TGI with CCRF-CEM leukemia, in the test with SK-MEL-2 melanoma, with HOP-92 NSCLC, with MALME-3M melanoma, in the test with MDA-MB-435 and with 786-0 renal was over 100 µM in each case. Besides, the TGI in the test with OVCAR-4 ovarian, in the test with SW-620 colon, in the test with MOLT-4 leukemia, with A549 NSCLC and in the test with LOX IMVI melanoma was over 100 µM each time.
`O=C1N/C(=N\N=C\c2ccccc2)C(c2ccccc2)O1` (configuration not stated): the TGI was 49.4 µM in the test on CCRF-CEM leukemia; over 100 µM in the test on SK-MEL-2 melanoma; over 100 µM in the test with HOP-92 NSCLC; over 100 µM with MALME-3M melanoma; over 100 µM in the test with MDA-MB-435; over 100 µM in the test with 786-0 renal. For the same compound, the TGI with OVCAR-4 ovarian, in the test with SW-620 colon, in the test on MOLT-4 leukemia, in the test on A549 NSCLC and in the test on LOX IMVI melanoma was over 100 µM each time.
Consider `C[C@]12C=CC(=O)C=C1CC[C@@H]1[C@@H]2CC[C@@]2(C)[C@H]1CC[C@]2(O)C(N)=O`, for which the TGI in the test with CCRF-CEM leukemia, in the test on SK-MEL-2 melanoma, in the test on HOP-92 NSCLC, in the test on MALME-3M melanoma, in the test with MDA-MB-435 and in the test on 786-0 renal was over 100 µM throughout. The TGI in the test with OVCAR-4 ovarian, in the test on SW-620 colon, in the test on MOLT-4 leukemia, in the test with A549 NSCLC and with LOX IMVI melanoma was over 100 µM in each case.
Take `CCOC(=O)C(NC(=O)OCc1ccccc1)C(=O)O` (configuration not stated): the TGI in the test with CCRF-CEM leukemia, in the test on SK-MEL-2 melanoma, with HOP-92 NSCLC, in the test on MALME-3M melanoma, in the test on MDA-MB-435 and in the test with 786-0 renal was over 100 µM in each case. Moreover, the TGI in the test on OVCAR-4 ovarian, in the test with SW-620 colon, in the test on MOLT-4 leukemia, in the test on A549 NSCLC and in the test with LOX IMVI melanoma was over 100 µM each time.
For the compound `CC1(C)CCN2C(=O)C34CCCC3CC21S4` (configuration not stated), the TGI in the test on CCRF-CEM leukemia, in the test on SK-MEL-2 melanoma, in the test on HOP-92 NSCLC, in the test with MALME-3M melanoma, with MDA-MB-435 and with 786-0 renal was over 100 µM throughout. In addition, the TGI in the test on OVCAR-4 ovarian, in the test on SW-620 colon, with MOLT-4 leukemia, in the test on A549 NSCLC and in the test on LOX IMVI melanoma was over 100 µM throughout.
Consider `COC(=O)c1ccc2c(c1)CC1(C2)Cc2cc3c(cc2C1)CCC3`, for which the TGI with CCRF-CEM leukemia, in the test on SK-MEL-2 melanoma, in the test on HOP-92 NSCLC, in the test with MALME-3M melanoma, in the test with MDA-MB-435 and with 786-0 renal was over 100 µM in each case. For the same compound, the TGI in the test on OVCAR-4 ovarian, in the test on SW-620 colon, in the test on MOLT-4 leukemia, in the test on A549 NSCLC and with LOX IMVI melanoma was over 100 µM each time.
`CNC(=O)c1n[nH]n(C2CCCCC2)c1=S`: the TGI in the test on CCRF-CEM leukemia, in the test with SK-MEL-2 melanoma, in the test with HOP-92 NSCLC, in the test with MALME-3M melanoma, in the test with MDA-MB-435 and with 786-0 renal was over 100 µM each time. For the same compound, the TGI in the test on OVCAR-4 ovarian, in the test on SW-620 colon, with MOLT-4 leukemia, in the test with A549 NSCLC and in the test on LOX IMVI melanoma was over 100 µM each time.
